Each structure is given as a SMILES string. Read-outs that look alike come from different tables or passages of the source.

The Km is the concentration of substrate that gives half-maximal velocity.

The test system of test [1] is T1, TVNrdJm.
T1 construct: gene nrdJ
To be noted: read-out: apparent KM; effector dTTP, adenosylcobalamin, TCEP, 20 mmol L^−1 MgCl2, Tris pH 8.0, 40 °C; apparent fitted value, called lower boundary by authors (substrate inhibition omitted).

Test [2] deals with T2, TVNrdJm.
T2 construct: gene nrdJ; monomeric-type class II RNR; pET28b(+) NdeI/HindIII, E. coli BL21(DE3); apical loop P-A-G-R with A67, G68, R69
The test can be described thus: HPLC quantification of deoxyribonucleotide, Michaelis-Menten fit. The class given is biochemical, Thermus virus P74-23. To be noted: effector dTTP, adenosylcobalamin, TCEP, 20 mmol L^−1 MgCl2, Tris pH 8.0, 40 °C.

On to `Nc1nc2c(ncn2[C@@H]2O[C@H](COP(=O)(O)OP(=O)(O)O)[C@@H](O)[C@H]2O)c(=O)[nH]1` [GDP], for which the Km in the test on TVNrdJm [1] was greater than 6850 µM.

Take `Nc1nc2c(ncn2[C@@H]2O[C@H](COP(=O)(O)OP(=O)(O)OP(=O)(O)O)[C@@H](O)[C@H]2O)c(=O)[nH]1` [GTP]: in the test with TVNrdJm [2], the Km is 300 ± 60 µM.

The values are drawn from paper PMC8365446, “Structural determinants and distribution of phosphate specificity in ribonucleotide reductases” (The Journal of Biological Chemistry, 2021).
